This is an account of results in PubChem BioAssay (NCI).

What all share (experiment): inhibition of tumour cell growth, NCI panel, 48 h
The test system of test [1] is 786-0 renal.
In test [2] the test system is CAKI-1 renal.
For test [3], the system named is HCT-116 colon.
The subject of test [4] is HT29 colon.
Test [5] deals with K-562 leukemia.
The test system of test [6] is MDA-MB-231 breast.
For test [7], the system named is MDA-MB-435.
Test [8] relates to MOLT-4 leukemia.
The subject of test [9] is OVCAR-3 ovarian.
Test [10] deals with PC-3 prostate.
The test system of test [11] is RXF 393 renal.
Test [12] has as its system SF-295 CNS.
Test [13] concerns SNB-19 CNS.
Test [14] concerns SNB-75 CNS.
For test [15], the system named is SR leukemia.
The test system of test [16] is SW-620 colon.
Test [17] deals with U251 CNS.
Test [18] has as its system UO-31 renal.

The structures appear in SMILES notation.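 48-hour exposure; five concentrations; linearly interpolated endpoints. TGI: total growth inhibition.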 Some results are limits rather than exact numbers.

Turning to `S=C(c1c[nH]c2ccccc12)N1CCN(c2ccccc2)CC1`, the TGI in [1], in [2], in test [3], in [4], in [5] and in test [6] was greater than 100 µM throughout. Moreover, the TGI in test [7], in test [8], in [9], in test [10], in [11] and in [12] was greater than 100 µM in each case. Also, the TGI in [13] was greater than 100 µM; in test [14] it was 21.6 µM; in test [15], greater than 100 µM; in test [16], greater than 100 µM; in test [17] it was 77.8 µM.
For the molecule `O=C(N/N=C\c1ccc([N+](=O)[O-])cc1)Nc1cccc2ccccc12`, the TGI in [1] was 29.1 µM; in test [2], 33.1 µM; in test [3] it was greater than 52.2 µM; in [4] it was greater than 100 µM; in [5] it was greater than 100 µM; in test [6], 33.7 µM. Further, the TGI in test [7] is greater than 100 µM; in test [8], greater than 100 µM; in test [9], greater than 100 µM; in test [10] it was greater than 71.4 µM; in test [11], 34.5 µM; in [12], 22.6 µM. In addition, the TGI in [13] was 29.4 µM; in [14] it was greater than 28.8 µM; in [15], greater than 100 µM; in test [16], greater than 100 µM; in [17], 23.6 µM; in test [18] it was greater than 79.8 µM.
Turning to `CCn1c(-c2ccc(C)cc2)cs/c1=N\C(P(=O)(O)O)P(=O)(O)O`, the TGI in [1], in test [2], in [3], in [4], in test [5] and in test [6] was greater than 100 µM in each case. The TGI in test [7], in test [8], in test [9], in [10], in test [11] and in test [12] was greater than 100 µM throughout. Further, the TGI in test [13], in [14], in test [15], in test [16], in [17] and in [18] was greater than 100 µM in each case.
In the case of `Cc1ccc(Nc2sc(C)cc2C#N)c([N+](=O)[O-])c1`, the TGI in [1], in test [2], in test [3], in [5], in test [6] and in [7] was greater than 100 µM throughout. Further, the TGI in test [8], in [9], in test [10], in test [11], in test [12] and in test [13] was greater than 100 µM each time. For the same molecule, the TGI in [14], in [15], in test [16], in test [17] and in test [18] was greater than 100 µM each time.
In the case of `CC1=C(C(=O)Nc2ccccc2)C(c2ccc(C)o2)C(C#N)=C(SCc2ccccc2)N1` (centres undefined), the TGI in test [1], in [2], in test [3], in test [4], in test [5] and in test [6] was greater than 100 µM each time. Also, the TGI was 24.6 µM in [7]; greater than 100 µM in [8]; greater than 100 µM in test [9]; greater than 100 µM in test [10]; greater than 100 µM in test [11]; greater than 100 µM in [12]. Besides, the TGI was greater than 100 µM in test [13]; greater than 100 µM in [14]; greater than 68.6 µM in test [15]; greater than 100 µM in [16]; greater than 100 µM in test [17]; greater than 100 µM in [18].
In the case of `CN(C)CCNC(=O)c1ccc(NCCCN(C)CCCNc2ccc(C(=O)NCCN(C)C)c3[nH]c4ccc([N+](=O)[O-])cc4c(=O)c23)c2c(=O)c3cc([N+](=O)[O-])ccc3[nH]c12`, the TGI in test [1] worked out at 1.14 µM; in test [2], 3.75 µM; in test [3], 0.644 µM; in test [4] it was 1.02 µM; in test [5], 1.83 µM; in [6], 0.34 µM. In addition, the TGI in test [7] was determined as 0.328 µM; in test [8], 0.0623 µM; in test [9], 1.94 µM; in test [10] it was 0.535 µM; in [11], 0.351 µM; in test [13] it was 0.649 µM. For the same molecule, the TGI in test [14] came to 1.21 µM; in test [15], 1.91 µM; in test [16], 0.557 µM; in test [17], 0.162 µM; in test [18], 2.01 µM.
For `O=c1[nH]c(Nc2cccc(Br)c2)nc2nc[nH]c12`, the TGI in test [1], in test [2], in test [3], in test [4], in test [5] and in test [6] was greater than 100 µM in each case. In addition, the TGI in test [7], in test [8], in [9], in [10], in test [11] and in [12] was greater than 100 µM each time. Moreover, the TGI in test [13], in [14], in test [15], in test [16] and in test [18] was greater than 100 µM each time.
Turning to `CCOC(=O)c1cc(=O)oc2c1N(C)c1ncccc1N2`, the TGI in [1], in [2], in test [3], in [5], in test [6] and in test [7] was greater than 100 µM in each case. The TGI in [8], in test [9], in [10], in [11], in test [12] and in test [13] was greater than 100 µM in each case. In addition, the TGI in test [14], in test [15], in test [16], in test [17] and in test [18] was greater than 100 µM in each case.
For `CCN(CC)CCSc1nc2c(c(=N)n1-c1ccccc1)c(=S)n(-c1ccccc1)c(=S)n2-c1ccccc1`, the TGI in test [1] amounted to 1.55 µM; in test [2], 2.94 µM; in test [3] it was 4.69 µM; in [4], 3.37 µM; in test [5], 2.5 µM; in test [6] it was 3.73 µM. For the same molecule, the TGI in test [7] was 3.77 µM; in test [8], 2.33 µM; in test [9], 3.07 µM; in test [10], 3.32 µM; in [11], 2.78 µM; in test [12], 30.1 µM. Further, the TGI in test [13] is 40.6 µM; in test [14], 5.52 µM; in test [15] it was 0.936 µM; in test [16], greater than 21.4 µM; in test [17], 6.4 µM.
For the molecule `Cc1ccc(S(=O)(=O)/N=C(\[O-])C2=C(c3ccccc3)NN(C)c3nc4cccc[n+]4nc32)cc1`, the TGI in test [1], in test [2], in [3], in test [4], in test [5] and in [6] was greater than 100 µM throughout. The TGI in [7], in test [8], in [10], in test [11], in [13] and in test [14] was greater than 100 µM in each case. Moreover, the TGI in test [15], in test [16], in test [17] and in [18] was greater than 100 µM throughout.
Turning to `COc1ccc(N=C2C(=Nc3ccc(OC)cc3)N(S(=O)(=O)c3ccccc3)C(=S)N2c2ccc(OC)cc2)cc1`, the TGI in test [1] was greater than 100 µM; in test [2], greater than 100 µM; in test [3], greater than 100 µM; in test [5] it was greater than 100 µM; in test [6] it was 92.1 µM; in test [7], greater than 100 µM. The TGI in test [8], in test [9], in test [10], in [11], in test [12] and in test [13] was greater than 100 µM throughout. For the same molecule, the TGI in test [14] is 38.8 µM; in [15] it was greater than 100 µM; in test [16], greater than 100 µM; in test [17] it was greater than 100 µM; in test [18] it was greater than 100 µM.
For the molecule `COc1ccc(C2SCC(=O)N2NC(=O)C(C)Oc2ccccc2Cl)cc1` (centres undefined), the TGI in test [1], in test [2], in test [3], in test [4], in test [5] and in [6] was greater than 100 µM throughout. The TGI in test [7] was greater than 100 µM; in [8], 79.5 µM; in test [10], greater than 100 µM; in test [11], greater than 100 µM; in test [12], greater than 100 µM; in test [13], greater than 100 µM. The TGI in test [14] is greater than 100 µM; in test [15] it was 58.1 µM; in test [16], greater than 100 µM; in test [17], greater than 100 µM; in test [18] it was greater than 100 µM.
On to `CC1(C)N=C(/C=N/O)C(C)(C)N1O`, for which the TGI in test [1], in [3], in test [4], in [5], in test [6] and in [7] was greater than 100 µM throughout. Also, the TGI in test [8], in test [9], in test [10], in [11], in [12] and in test [13] was greater than 100 µM throughout. The TGI in [14], in [15], in [16], in test [17] and in [18] was greater than 100 µM in each case.
Turning to `O=C(CN1CCOCC1)CC(O)(C(F)(F)F)C(F)(F)F`, the TGI in test [1], in test [2], in [3], in test [5], in test [6] and in test [7] was greater than 100 µM each time. In addition, the TGI in test [8] is greater than 100 µM; in test [9], greater than 100 µM; in [10], 99.8 µM; in test [11], greater than 100 µM; in [12] it was greater than 100 µM; in test [13] it was greater than 100 µM. Also, the TGI in [14], in [15], in test [16], in test [17] and in test [18] was greater than 100 µM each time.
Take `CCOC(=O)C(C)(C)/C=C\C(Cl)=C(Cl)Cl`: the TGI in test [1], in [2], in test [3], in test [4], in test [5] and in test [6] was greater than 100 µM each time. In addition, the TGI in test [7], in [8], in [9], in [10], in test [11] and in [12] was greater than 100 µM throughout. Further, the TGI in test [13], in [14], in test [15], in test [16] and in [18] was greater than 100 µM in each case.
As for `COc1ccc(CCc2ccc(O)c(C(=O)O)c2)cc1OC`, the TGI in test [1], in [2], in [3], in test [4], in test [5] and in [6] was greater than 100 µM in each case. For the same molecule, the TGI in test [7], in test [8], in test [9], in test [10], in test [11] and in test [12] was greater than 100 µM each time. Moreover, the TGI in test [13], in test [14], in [15], in test [17] and in test [18] was greater than 100 µM throughout.
